Read-outs that look alike come from different tables or passages of the source.
What was measured:
[1] = target: Erk1 (Homo sapiens (Human), UniProt P27361); test: Protein Mass Modification Assay (intact protein MALDI); format: binding
How it was run: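 Human Erk1 was incubated 60 min at room temperature with a 10-fold molar excess of compound, then analysed as intact protein by MALDI with sinapinic acid matrix. The centroid mass shift versus untreated protein was divided by compound molecular weight to give percent modified protein.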

[2] = target: MEK1 activated ERK1 (Homo sapiens (Human), UniProt P27361); test: Omnia continuous-read kinase assay for potency against MEK1 activated ERK1; format: biochemical
How it was run: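 Apparent IC50 came from initial reaction slopes (RFU vs time) plotted against log inhibitor with a variable-slope fit. Reactions were started with ERK1 (4 nM final) added to 50 μM ATP, roughly at its appKM, and 10 μM Sox-conjugated ST17 peptide in 20 mM Tris pH 7.5, 5 mM MgCl2. Fluorescence was monitored every 71 seconds.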

[3] = MEK1 activated ERK1, WT, ATP at KM
[4] = read-out: ERK1 Omnia WT ATP KM IC50

Sequence of Erk1 (P27361 whole entry, looked up): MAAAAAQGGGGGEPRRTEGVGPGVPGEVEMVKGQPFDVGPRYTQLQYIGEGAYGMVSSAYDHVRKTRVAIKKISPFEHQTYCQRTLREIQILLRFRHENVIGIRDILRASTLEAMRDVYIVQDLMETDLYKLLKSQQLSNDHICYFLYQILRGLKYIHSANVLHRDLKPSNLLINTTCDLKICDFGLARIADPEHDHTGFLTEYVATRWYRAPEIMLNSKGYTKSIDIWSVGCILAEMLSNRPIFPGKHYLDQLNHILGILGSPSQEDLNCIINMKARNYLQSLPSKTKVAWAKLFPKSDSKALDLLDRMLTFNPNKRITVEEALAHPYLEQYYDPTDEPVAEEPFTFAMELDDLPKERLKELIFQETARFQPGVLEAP
Sequence of MEK1 activated ERK1 (P27361 whole entry): as the sequence (P27361 whole entry, looked up) above

Structure (SMILES) | ERK1 Mass Mod (%) [1] | IC50 [2, 3] | IC50 [2, 4]
C=C(C)S(=O)(=O)Nc1cc(F)ccc1Nc1nc(Nc2cc(C(C)=O)ccc2C)ncc1Cl [Compound I-243, N-(2-((2-((5-acetyl-2-methylphenyl)amino)-5-chloropyrimidin-4-yl)amino)-5-fluorophenyl)prop-1-ene-2-sulfonamide] | G (key: E: provided a mass modification of ≧70%; F: provided a mass modification of 31-69%; G: proived a mass modification ≦30%) |  | < 100 nM
C=CC(=O)Nc1cc(Cl)ccc1Nc1nc(Nc2cc(Cl)nc(OC)c2)ncc1Cl [Compound I-247, N-(5-chloro-2-((5-chloro-2-((2-chloro-6-methoxypyridin-4-yl)amino)pyrimidin-4-yl)amino)phenyl)acrylamide] | F (provided a mass modification of 31-69%) | > 1000 nM | 
C=CC(=O)Nc1ccccc1Oc1nc(Nc2ccc(N3CCN(C(C)=O)CC3)cc2OC)ncc1Cl [Compound I-259, N-(2-((2-((4-(4-acetylpiperazin-1-yl)-2-methoxyphenyl)amino)-5-chloropyrimidin-4-yl)oxy)phenyl)acrylamide] | F (provided a mass modification of 31-69%) | > 1000 nM | 
C=CC(=O)Nc1ccccc1Oc1nc(Nc2ccc(N3CCN(C(C)=O)CC3)cc2OC)ncc1F [Compound I-260, N-(2-((2-((4-(4-acetylpiperazin-1-yl)-2-methoxyphenyl)amino)-5-fluoropyrimidin-4-yl)oxy)phenyl)acrylamide] | G (proived a mass modification ≦30%) | > 1000 nM | 
C=CC(=O)Nc1ccccc1Oc1ccnc(Nc2ccc(N3CCN(C(C)=O)CC3)cc2OC)n1 [Compound I-261, N-(2-((2-((4-(4-acetylpiperazin-1-yl)-2-methoxyphenyl)amino)pyrimidin-4-yl)oxy)phenyl)acrylamide] | G (proived a mass modification ≦30%) | > 1000 nM | 
C=CC(=O)Nc1cc(OC)ccc1Oc1nc(Nc2ccc(N3CCC[C@@H]3C(N)=O)cc2OC)ncc1C(N)=O [Compound I-262, (R)-4-(2-acrylamido-4-methoxyphenoxy)-2-((4-(2-carbamoylpyrrolidin-1-yl)-2-methoxyphenyl)amino)pyrimidine-5-carboxamide] | F (provided a mass modification of 31-69%) | > 1000 nM | 
C=CC(=O)Nc1cc(OC)ccc1Oc1nc(Nc2ccc(N3CCC[C@@H]3CO)cc2OC)ncc1C(N)=O [Compound I-264, (R)-4-(2-acrylamido-4-methoxyphenoxy)-2-((4-(2-(hydroxymethyl)pyrrolidin-1-yl)-2-methoxyphenyl)amino)pyrimidine-5-carboxamide] | F (key: E: provided a mass modification of ≧70%; F: provided a mass modification of 31-69%; G: proived a mass modification ≦30%) |  | 501 to 999 nM
C=CC(=O)Nc1cc(OC)ccc1Oc1nc(Nc2ccc(N3CCC[C@H]3C(N)=O)cc2OC)ncc1C(N)=O [Compound I-265, (S)-4-(2-acrylamido-4-methoxyphenoxy)-2-((4-(2-carbamoylpyrrolidin-1-yl)-2-methoxyphenyl)amino)pyrimidine-5-carboxamide] | F (provided a mass modification of 31-69%) | > 1000 nM | 
CC(C)=CC(=O)c1ccccc1Oc1nc(Nc2cc(C(N)=O)ccc2C)ncc1C(N)=O [Compound I-271, 2-((5-carbamoyl-2-methylphenyl)amino)-4-(2-(3-methylbut-2-enoyl)phenoxy)pyrimidine-5-carboxamide] | G (proived a mass modification ≦30%) | > 1000 nM | 
CN(C)CCC(=O)Nc1ccccc1Nc1nc(N[C@H]2CCCN(C(=O)CO)C2)ncc1C(F)(F)F [Compound I-276, (S)-3-(dimethylamino)-N-(2-((2-((1-(2-hydroxyacetyl)piperidin-3-yl)amino)-5-(trifluoromethyl)pyrimidin-4-yl)amino)phenyl)propanamide] | G (proived a mass modification ≦30%) | > 1000 nM | 
C=CC(=O)Nc1cc(C)ccc1Nc1nc(N[C@H]2CCCN(S(=O)(=O)C=C)C2)ncc1C(F)(F)F [Compound I-277, (S)—N-(5-Methyl-2-((5-(trifluoromethyl)-2-((1-(vinylsulfonyl)piperidin-3-yl)amino)pyrimidin-4-yl)amino)phenyl)acrylamide] | E (provided a mass modification of ≧70%) | > 1000 nM | 
C=CC(=O)Nc1cc(C)ccc1Nc1nc(N[C@@H]2CCCN(S(=O)(=O)C=C)C2)ncc1C(F)(F)F [Compound I-278, (R)—N-(5-Methyl-2-((5-(trifluoromethyl)-2-((1-(vinylsulfonyl)piperidin-3-yl)amino)pyrimidin-4-yl)amino)phenyl)acrylamide] | F (provided a mass modification of 31-69%) | > 1000 nM | 
C=CC(=O)Nc1cc(C)ccc1Nc1nc(N[C@@H]2CCN(S(=O)(=O)C=C)C2)ncc1C(F)(F)F [Compound I-280, (R)—N-(5-Methyl-2-((5-(trifluoromethyl)-2-((1-(vinylsulfonyl)pyrrolidin-3-yl)amino)pyrimidin-4-yl)amino)phenyl)acrylamide] | E (provided a mass modification of ≧70%) | > 1000 nM | 
C=CC(=O)Nc1ccccc1Nc1nc(Nc2cc(OC)nc(N3CCN(S(C)(=O)=O)CC3)c2)ncc1C(F)(F)F [Compound I-290, N-(2-((2-((2-Methoxy-6-(4-(methylsulfonyl)piperazin-1-yl)pyridin-4-yl)amino)-5-(trifluoromethyl)pyrimidin-4-yl)amino)phenyl)acrylamide] | E (provided a mass modification of ≧70%) | > 1000 nM | 

Continued, in another order:

ERK1 Mass Mod (%) [1] | IC50 [2, 3] | Structure (SMILES) | IC50 [2, 4]
G (proived a mass modification ≦30%) | < 100 nM | C#CCOc1cc(C)c(Nc2ncc(Cl)c(Nc3ccccc3NC(=O)C=C)n2)cc1C(N)=O [Compound I-228, 5-((4-((2-acrylamidophenyl)amino)-5-chloropyrimidin-2-yl)amino)-4-methyl-2-(prop-2-yn-1-yloxy)benzamide] | 
E (provided a mass modification of ≧70%) | < 100 nM | C=CC(=O)Nc1cc(OC)ccc1Nc1nc(Nc2cc(C(N)=O)ccc2C)ncc1Cl [Compound I-237, 3-((4-((2-acrylamido-4-methoxyphenyl)amino)-5-chloropyrimidin-2-yl)amino)-4-methylbenzamide] | 
E (provided a mass modification of ≧70%) | > 1000 nM | C=CC(=O)Nc1cc(C)ccc1Nc1nc(Nc2cc(Cl)nc(OC)c2)ncc1Cl [Compound I-244, N-(2-((5-chloro-2-((2-chloro-6-methoxypyridin-4-yl)amino)pyrimidin-4-yl)amino)-5-methylphenyl)acrylamide] | 
E (provided a mass modification of ≧70%) | < 100 nM | C=CC(=O)Nc1ccccc1Oc1nc(Nc2ccc(N3CCN(C(C)=O)CC3)cc2OC)ncc1C(N)=O [Compound I-258, 2-((4-(4-acetylpiperazin-1-yl)-2-methoxyphenyl)amino)-4-(2-acrylamidophenoxy)pyrimidine-5-carboxamide] | 
E (provided a mass modification of ≧70%) | < 100 nM | C=CC(=O)Nc1ccccc1Nc1nc(Nc2cc(OC)nc(N3CCCC3)c2)ncc1C(F)(F)F [Compound I-281, N-(2-((2-((2-Methoxy-6-(pyrrolidin-1-yl)pyridin-4-yl)amino)-5-(trifluoromethyl)pyrimidin-4-yl)amino)phenyl)acrylamide] | 
E (provided a mass modification of ≧70%) | < 100 nM | C=CC(=O)Nc1ccccc1Nc1nc(Nc2cc(OC)nc(OCCOC)c2)ncc1C(F)(F)F [Compound I-283, N-(2-((2-((2-Methoxy-6-(2-methoxyethoxy)pyridin-4-yl)amino)-5-(trifluoromethyl)pyrimidin-4-yl)amino)phenyl)acrylamide] | 
E (provided a mass modification of ≧70%) | < 100 nM | C=CC(=O)Nc1cc(OC)ccc1Nc1nc(Nc2cc(OC)ncc2C)ncc1C(F)(F)F [Compound I-284, N-(5-Methoxy-2-((2-((2-methoxy-5-methylpyridin-4-yl)amino)-5-(trifluoromethyl)pyrimidin-4-yl)amino)phenyl)acrylamide] | 
E (provided a mass modification of ≧70%) | < 100 nM | C=CC(=O)Nc1ccccc1Nc1nc(Nc2cc(NCCOC)nc(OC)c2)ncc1C(F)(F)F [Compound I-286, N-(2-((2-((2-Methoxy-6-((2-methoxyethyl)amino)pyridin-4-yl)amino)-5-(trifluoromethyl)pyrimidin-4-yl)amino)phenyl)acrylamide] | 
E (provided a mass modification of ≧70%) | < 100 nM | C=CC(=O)Nc1cc(Cl)ccc1Nc1nc(Nc2cc(OC)ncc2C)ncc1C(F)(F)F [Compound I-289, N-(5-Chloro-2-((2-((2-methoxy-5-methylpyridin-4-yl)amino)-5-(trifluoromethyl)pyrimidin-4-yl)amino)phenyl)acrylamide] | 
E (provided a mass modification of ≧70%) | < 100 nM | C=CC(=O)Nc1ccccc1Nc1nc(Nc2cc(OC)nc(N3CCS(=O)(=O)CC3)c2)ncc1C(F)(F)F [Compound I-291, N-(2-((2-((2-(1,1-Dioxidothiomorpholino)-6-methoxypyridin-4-yl)amino)-5-(trifluoromethyl)pyrimidin-4-yl)amino)phenyl)acrylamide] | 
E (provided a mass modification of ≧70%) | < 100 nM | C=CC(=O)Nc1cc(C)ccc1Nc1nc(Nc2cc(OC)nc(N3CCN(C(C)=O)CC3)c2)ncc1Cl [Compound I-296, N-(2-((2-((2-(4-acetylpiperazin-1-yl)-6-methoxypyridin-4-yl)amino)-5-chloropyrimidin-4-yl)amino)-5-methylphenyl)acrylamide] | 

— patent US9796700B2 (Celgene CAR LLC, priority 2013, dated 2017)
